Measured values from patent publication US20240270821A1, “GIP/GLP1/GCG TRI-RECEPTOR AGONISTS AND USES THEREOF” (priority 2023, published 2024).
Starred links: 1 amine or outer side, 2 acyl side, 3 side chain; linkers in the order of their positions; H or OH if unused. Non-standard residues stand in square brackets, D forms with d. Groups on a side chain read outwards from the residue. No end group written: not given here. *: point of attachment. C20 diacid = O=C(O)CCCCCCCCCCCCCCCCCCC(=O)*; C18 diacid = O=C(O)CCCCCCCCCCCCCCCCC(=O)*; αMePhe(2-F) = C[C@](N)(Cc1ccccc1F)C(=O)O; γGlu = O=C(O)[C@H](CCC(=O)[*:2])N[*:1]; NMeY = CN[C@@H](Cc1ccc(O)cc1)C(=O)O; αMe4Pal = C[C@](N)(Cc1ccncc1)C(=O)O; αMeF = C[C@](N)(Cc1ccccc1)C(=O)O; 4Pal = N[C@@H](Cc1ccncc1)C(=O)O; αMeL = CC(C)C[C@](C)(N)C(=O)O; Orn = NCCC[C@H](N)C(=O)O; AEEA = NCCOCCOCC(=O)O; Aib = CC(C)(N)C(=O)O

T1: hGIPR (Homo sapiens, UniProt P48546)
T1 sequence (P48546 22-466): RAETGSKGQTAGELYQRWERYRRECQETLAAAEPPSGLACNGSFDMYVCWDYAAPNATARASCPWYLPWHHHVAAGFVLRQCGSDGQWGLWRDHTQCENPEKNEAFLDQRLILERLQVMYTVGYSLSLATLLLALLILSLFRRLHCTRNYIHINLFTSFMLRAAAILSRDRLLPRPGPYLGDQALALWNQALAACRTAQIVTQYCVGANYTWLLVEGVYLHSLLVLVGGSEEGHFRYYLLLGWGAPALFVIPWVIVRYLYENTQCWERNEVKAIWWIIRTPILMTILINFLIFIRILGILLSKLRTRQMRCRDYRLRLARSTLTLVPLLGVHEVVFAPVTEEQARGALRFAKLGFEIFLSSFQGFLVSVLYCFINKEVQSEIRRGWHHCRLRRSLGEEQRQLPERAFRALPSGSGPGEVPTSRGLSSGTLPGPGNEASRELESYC

T2: human GIP receptor (human) (UniProt P48546)
T2 sequence (looked up): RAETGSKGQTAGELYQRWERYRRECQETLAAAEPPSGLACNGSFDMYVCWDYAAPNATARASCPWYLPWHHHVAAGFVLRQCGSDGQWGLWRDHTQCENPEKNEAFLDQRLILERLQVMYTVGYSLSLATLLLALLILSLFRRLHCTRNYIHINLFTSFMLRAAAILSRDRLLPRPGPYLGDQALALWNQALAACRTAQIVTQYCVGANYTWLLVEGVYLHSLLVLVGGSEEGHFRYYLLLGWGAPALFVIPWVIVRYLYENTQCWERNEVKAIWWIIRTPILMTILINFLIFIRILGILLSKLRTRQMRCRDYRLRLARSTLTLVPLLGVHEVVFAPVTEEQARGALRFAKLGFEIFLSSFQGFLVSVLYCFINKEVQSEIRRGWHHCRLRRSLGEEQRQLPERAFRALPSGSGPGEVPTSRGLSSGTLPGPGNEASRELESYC


Tests used:
[1] = molecular target: human GLP1-R (Homo sapiens, UniProt P43220); assay: GLP1-R internalization assay in HEK293 cells; format: cell-based; settings: for EC50: HEK293 cells expressing SNAP-GLP-1R, read-out: GLP1R Internalization EC50; for Internalization % TOP: normalized to maximum concentration of GLP-1 (100%)
human GLP1-R, sequence (P43220 24-463): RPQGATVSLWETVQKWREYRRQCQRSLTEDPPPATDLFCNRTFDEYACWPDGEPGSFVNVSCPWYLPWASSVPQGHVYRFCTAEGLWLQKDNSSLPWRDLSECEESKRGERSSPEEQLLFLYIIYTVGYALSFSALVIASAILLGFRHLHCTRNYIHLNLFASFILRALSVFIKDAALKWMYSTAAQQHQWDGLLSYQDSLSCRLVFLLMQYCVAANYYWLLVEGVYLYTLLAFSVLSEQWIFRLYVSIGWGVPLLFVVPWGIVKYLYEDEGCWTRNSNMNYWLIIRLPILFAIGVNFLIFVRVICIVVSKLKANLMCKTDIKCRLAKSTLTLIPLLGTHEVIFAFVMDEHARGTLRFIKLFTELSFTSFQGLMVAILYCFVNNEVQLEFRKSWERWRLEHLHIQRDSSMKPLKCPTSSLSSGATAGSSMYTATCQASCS

[2] = molecular target: T1, hGIPR; assay: Functional cAMP activation in the presence of 0.1% casein (no HSA); format: cell-based; settings: in the presence of 0.1% casein (no HSA); geometric mean; read-out: Relative cAMP EC50, hGIPR;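 as to Relative cAMP EC50, hGIPR: intracellular cAMP rise after 30 min at 37 °C read by HTRF against a standard curve, scaled between buffer alone (0%) and top control ligand concentration (100%), four-parameter fit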;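 as to Relative cAMP EC50, hGLP-1R: intracellular cAMP rise after 30 min at 37 °C read by HTRF, normalized between buffer only (0%) and maximal control ligand (100%), four-parameter variable-slope fit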
[3] = molecular target: T1, hGIPR; assay: Functional cAMP activity in the presence of 1% HSA; format: cell-based; settings: read-out: cAMP Rel EC50, hGIPR
[4] = system: Intestinal organoid from Göttingen minipig jejunum tissue, 2D monolayer; assay: Cell based in vitro permeability (Papp) assay; format: in vitro ADME
In short: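 Papp calculated from LC/MS peptide levels in apical and basal compartments. Basal sampling at 20 min with C10 present, across monolayers grown from dissociated minipig jejunal organoids in transwells.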

[5] = molecular target: T3, hGLP-1R (Homo sapiens, UniProt P43220); assay: Functional cAMP activity in the presence of 1% HSA; format: cell-based; settings: read-out: cAMP Rel EC50, hGLP-1R
T3 sequence (P43220 24-463): as above

[6] = molecular target: T3, hGLP-1R; assay: Functional cAMP activation in the presence of 0.1% casein (no HSA); format: cell-based; settings: in the presence of 0.1% casein (no HSA); geometric mean; read-out: Relative cAMP EC50, hGLP-1R;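 as to Relative cAMP EC50, hGIPR: intracellular cAMP rise after 30 min at 37 °C read by HTRF against a standard curve, scaled between buffer alone (0%) and top control ligand concentration (100%), four-parameter fit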;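 as to Relative cAMP EC50, hGLP-1R: intracellular cAMP rise after 30 min at 37 °C read by HTRF, normalized between buffer only (0%) and maximal control ligand (100%), four-parameter variable-slope fit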
[7] = molecular target: human GcgR (Homo sapiens, UniProt P47871); assay: Functional cAMP activity in the presence of 1% HSA; format: cell-based; settings: read-out: cAMP Rel EC50, hGcgR
human GcgR, sequence (P47871 26-477): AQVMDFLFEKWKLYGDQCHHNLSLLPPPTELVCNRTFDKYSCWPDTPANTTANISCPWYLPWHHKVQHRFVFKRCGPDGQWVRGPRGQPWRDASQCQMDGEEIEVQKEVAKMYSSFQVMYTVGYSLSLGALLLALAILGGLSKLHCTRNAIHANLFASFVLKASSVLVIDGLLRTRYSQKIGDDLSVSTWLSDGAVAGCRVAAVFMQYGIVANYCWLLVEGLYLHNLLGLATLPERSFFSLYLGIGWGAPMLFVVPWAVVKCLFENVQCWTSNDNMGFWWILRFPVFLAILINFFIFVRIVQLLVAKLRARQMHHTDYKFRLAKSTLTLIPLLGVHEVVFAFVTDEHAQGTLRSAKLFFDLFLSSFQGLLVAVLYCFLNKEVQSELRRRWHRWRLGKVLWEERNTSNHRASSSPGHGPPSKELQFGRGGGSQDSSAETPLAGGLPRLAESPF

[8] = molecular target: hGcgR (Homo sapiens, UniProt P47871); assay: Functional cAMP activation in the presence of 0.1% casein (no HSA); format: cell-based; settings: in the presence of 0.1% casein (no HSA); geometric mean; read-out: Relative cAMP EC50, hGcgR;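 also: intracellular cAMP rise after 30 min at 37 °C, read by HTRF against a cAMP standard curve, scaled from buffer only (0%) to maximal control ligand response (100%)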
hGcgR, sequence (P47871 26-477): as above

[9] = molecular target: Pro-Link-tagged Human GLP-1R (human) (UniProt P43220); assay: cell-based or functional assay
Pro-Link-tagged Human GLP-1R (human), sequence (P43220 24-463): as the sequence (P43220 24-463) above

[10] = molecular target: T2, human GIP receptor (human); assay: cell-based or functional assay
[11] = molecular target: human glucagon receptor (human) (UniProt P47871); assay: cell-based or functional assay
human glucagon receptor (human), sequence (P47871 26-477): as the sequence (P47871 26-477) above

[12] = molecular target: T3, hGLP-1R; assay: cell-based or functional assay

| Molecule | EC50 [1] | Internalization % TOP [1] | EC50 [2] | EC50 [3] | Relative Papp (Compared to internal standard) [4] | EC50 [5] | EC50 [6] | EC50 [7] | EC50 [8] | % Stimulation Max [9] | hGLP1R β-arrestin Rel EC50 [9] | Relative cAMP EC50 [10] | cAMP Rel EC50 (1% HSA) [10] | Relative cAMP EC50 [11] | cAMP Rel EC50 (1% HSA) [11] | Relative cAMP EC50 [12] | cAMP Rel EC50 (1% HSA) [12] | cAMP Rel EC50 (in the presence of 1% HSA) [10] | cAMP Rel EC50 (in the presence of 1% HSA) [11] | cAMP Rel EC50 (in the presence of 1% HSA) [12] |
| --- | --- | --- | --- | --- | --- | --- | --- | --- | --- | --- | --- | --- | --- | --- | --- | --- | --- | --- | --- | --- |
| H-Y[Aib]QGTFTSD[4Pal]SQ[αMeL]LDKK([AEEA-γGlu-C18 diacid])AQ[αMe4Pal]AFIEYLIE[Aib]GESSGAPPPSGS-NH2 [Example 226] | 29.1 nM | 59.3% | 0.127 nM | 32.2 nM | 0.36 | 354 nM | 1.97 nM | 763 nM | 3.08 nM |  |  |  |  |  |  |  |  |  |  |  |
| H-Y[Aib]QGTFTSD[4Pal]S[Orn][αMeL]LDKK([AEEA-γGlu-C18 diacid])AQ[αMe4Pal]AFIEYLIE[Aib]GESSGAPPPSGS-NH2 [Example 223] | 45.8 nM | 59.3% | 0.215 nM | 37.2 nM | 0.29 | 627 nM | 2.83 nM | 373 nM | 1.57 nM |  |  |  |  |  |  |  |  |  |  |  |
| H-Y[Aib]QGTFTSD[4Pal]SQ[αMeL]LDKK([AEEA-γGlu-C18 diacid])AQ[αMe4Pal]AFIEYLIE[Aib]GESSGAPPPSGE-NH2 [Example 227] | 114 nM | 59.4% | 0.17 nM | 39.7 nM | 0.42 | 418 nM | 2.34 nM | 937 nM | 4.22 nM |  |  |  |  |  |  |  |  |  |  |  |
| H-Y[Aib]QGTFTSDFS[Orn][αMeL]LDKK([AEEA-γGlu-C18 diacid])AQ[Aib]AFIEYLLE[Aib]GPSS[Aib]APPPSGS-NH2 [Example 238] | 32.1 nM | 38.2% | 0.0909 nM | 8.78 nM | 0.06 | 262 nM | 2.71 nM | 334 nM | 2.78 nM |  |  |  |  |  |  |  |  |  |  |  |
| Y[Aib]QGTFTSDFS[Orn][αMeL]LDKK([AEEA-AEEA-γGlu-C18 diacid])AQ[Aib]AFIEYLLE[dA]GPSSGHPPPSGH-NH2 [Example 255] | 47.1 nM | 51.8% | 0.107 nM | 21.9 nM | 0.23 | 272 nM | 1.9 nM | 883 nM | 5.48 nM |  |  |  |  |  |  |  |  |  |  |  |
| [NMeY][Aib]QGT[αMeF]TSDYSSLLDKIAAKAFIEYLLEGGPSSGEPPPSEG-NH2 (not fully specified (residue 20)) [Example 297] |  |  |  |  |  |  |  |  |  | 33.5% | 60.2 nM | 0.626 nM | 325 nM | 3.26 nM | 2320 nM | 2.96 nM | 1130 nM |  |  |  |
| HXQGTXTSDYSILLDKKAAXAFIEYLIETGPSSGEPPPSEG (Aib, αMeF(2F), AEEA-γGlu-C20 diacid on Lys, amide; synthetic construct; SITE 2: note = 2-Aminoisobutyric Acid; SITE 6: note = alpha-methyl-2-fluoro-L-phenylalanine; SITE 17: note = Lysine is chemically modified through conjugation of the epsilon-amino group of the Lysine side chain with (2-[2-(2-Amino-ethoxy)-ethoxy]-acetyl)-(gamma-Glu)-CO-(CH2) 18-) [Example 290] |  |  |  |  |  |  |  |  |  | 83.5% | 3.94 nM | 0.43 nM |  | 2.68 nM |  | 0.34 nM |  | 53.4 nM | 878 nM | 90 nM |
| YXQGTFTSDYSIXLDKKAAXAFIEYLLEGGPSSGEPPPSEG (Aib, αMeL; lysine acylated (AEEA)2-γGlu-C20 diacid; C-terminal amide; synthetic construct; SITE 2: note = 2-Aminoisobutyric Acid; SITE 13: note = alpha-methyl-leucine; SITE 17: note = Lysine is chemically modified through conjugation of the epsilon-amino group of the Lysine side chain with (2-[2-(2-Amino-ethoxy)-ethoxy]-acetyl)2-(gamma-Glu)-CO-(CH2 )18-CO2H; SITE 20:) [Example 294] |  |  |  |  |  |  |  |  |  | 35.3% | 27.7 nM | 0.318 nM |  | 1.07 nM |  | 2.16 nM |  | 54.1 nM | 518 nM | 554 nM |
| Y[Aib]QGT[αMePhe(2-F)]TSDYSILLDKIAQK([AEEA-γGlu-C20 diacid])AFIEYLLEGGPSSGEPPPSEG-NH2 [Example 293] |  |  |  |  |  |  |  |  |  | 54.6% | 11.9 nM | 0.0587 nM |  | 4.01 nM |  | 0.994 nM |  | 9.63 nM | 1740 nM | 295 nM |
